A value given as a limit tells only on which side of the number the result lay.

One assay has as its system amyloid β production in transfected H4 (human neuroglioma) cells stably expressing APP constructs. Briefly: In vitro cell-based assay of inhibitors of amyloid β production (ELISA). To be noted: Homo sapiens, 16 h, transfected H4 cells stably expressing APP constructs; approximately 16 hours incubation; amyloid β in medium by ELISA; read-out: ACTIVITY (IC50, inhibition of amyloid β production). The method in brief:
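Test agents are screened at 10-100 μM for about 16 hours on cells stably expressing wild-type or variant APP. Secreted Aβ is measured by ELISA and compared with control-treated cells.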
A word on the IC50: it is the concentration that inhibits the measured activity by half. Turning to `C[C@H](CCCS(=O)(=O)O)N(c1cc(Cl)ccc1F)S(=O)(=O)c1ccc(Cl)cc1` [Example 1192, (4R)-4-[N-[5-chloro-2-fluorophenyl][(4-chlorophenyl)sulfonyl]amino]pentylsulfonic acid], the IC50 was 100 to 500 nM.

In the case of `C[C@H](CCCS(=O)(=O)O)N(c1cc(Cl)ccc1Cl)S(=O)(=O)c1ccc(Cl)cc1` [Example 1194, (4R)-4-[N-[2,5-dichlorophenyl][(4-chlorophenyl)sulfonyl]amino]pentylsulfonic acid], the IC50 was 100 to 500 nM.

Turning to `COS(=O)(=O)CCC[C@@H](C)N(c1cc(Cl)ccc1Cl)S(=O)(=O)c1ccc(Cl)cc1` [Example 1195, methyl(4R)-4-[N-[2,5-dichlorophenyl][(4-chlorophenyl)sulfonyl]amino]pentylsulfonate], the IC50 is > 500 nM.

As to `C[C@H](CCCS(=O)(=O)N1CCC1)N(c1cc(Cl)ccc1Cl)S(=O)(=O)c1ccc(Cl)cc1` [Example 1198, 4-chloro-N-[2,5-dichlorophenyl]-N-[4-[(1-azetidinyl)sulfonyl]-1(R)-methylbutyl]benzenesulfonamide], the IC50 is ≤ 25 nM.

`CNS(=O)(=O)CCC[C@@H](C)N(c1cc(Cl)ccc1Cl)S(=O)(=O)c1ccc(Cl)cc1` [Example 1199, 4-chloro-N-[2,5-dichlorophenyl]-N-[4-[(methylamino)sulfonyl]-1(R)-methylbutyl]benzenesulfonamide]: the IC50 was ≤ 25 nM.

Regarding `C[C@H](CCCS(=O)(=O)N1CCC1)N(c1cc(F)ccc1F)S(=O)(=O)c1ccc(Cl)cc1` [Example 1200, 4-chloro-N-[2,5-difluorophenyl]-N-[4-[(1-azetidinyl)sulfonyl]-1(R)-methylbutyl]benzenesulfonamide], the IC50 was ≤ 25 nM.

Turning to `C[C@H](CCCS(=O)(=O)N(C)C)N(c1cc(Cl)ccc1Cl)S(=O)(=O)c1ccc(Cl)cc1` [Example 1201, 4-chloro-N-[2,5-dichlorophenyl]-N-[4-[(dimethylamino)sulfonyl]-1(R)-methylbutyl]benzenesulfonamide], the IC50 was ≤ 25 nM.

Staying with this assay, now noted: transfected H4 cells stably expressing APP constructs; approximately 16 hours incubation; amyloid β in medium by ELISA; read-out: ACTIVITY (IC50, inhibition of amyloid β production).
With `CCS(=O)(=O)CCC[C@@H](C)N(c1cc(Cl)ccc1Cl)S(=O)(=O)c1ccc(Cl)cc1` [Example 1164, 4-chloro-N-[2,5-dichlorophenyl]-N-[1(R)-methyl-(4-ethylsulfonyl]butyl]benzenesulfonamide], the IC50 is ≤ 25 nM.

As for `C[C@H](CCCS(C)(=O)=O)N(c1cc(Cl)ccc1F)S(=O)(=O)c1ccc(Cl)cc1` [Example 1165, 4-chloro-N-[5-chloro-2-fluorophenyl]-N-[1(R)-methyl-(4-methylsulfonyl)butyl]benzenesulfonamide], the IC50 was ≤ 25 nM.

Regarding `CCS(=O)(=O)CCC[C@@H](C)N(c1cc(F)ccc1F)S(=O)(=O)c1ccc(Cl)cc1` [Example 1166, 4-chloro-N-[2,5-difluorophenyl]-N-[1(R)-methyl-(4-ethylsulfonyl)butyl]benzenesulfonamide], the IC50 was ≤ 25 nM.

`C[C@H](CCC[S+](C)[O-])N(c1cc(Cl)ccc1F)S(=O)(=O)c1ccc(Cl)cc1` (stereo partly drawn) [Example 1167, 4-chloro-N-[5-chloro-2-fluorophenyl]-N-[1(R)-methyl-(4-methylsulfinyl)butyl]benzenesulfonamide]: the IC50 was ≤ 25 nM.

Turning to `CC(C)[S+]([O-])CCC[C@@H](C)N(c1cc(Cl)ccc1Cl)S(=O)(=O)c1ccc(Cl)cc1` (stereo partly drawn) [Example 1169], the IC50 is ≤ 25 nM.

Turning to `C[C@H](CCCS(C)(=O)=O)N(c1cc(F)ccc1F)S(=O)(=O)c1ccc(Cl)cc1` [Example 1170, 4-chloro-N-[2,5-difluorophenyl]-N-[1(R)-methyl-(4-methylsulfonyl)butyl]benzenesulfonamide], the IC50 was ≤ 25 nM.

`C[C@H](CCC[S+](C)[O-])N(c1cc(Cl)ccc1Cl)S(=O)(=O)c1ccc(Cl)cc1` (stereo partly drawn) [Example 1171, 4-chloro-N-[2,5-dichlorophenyl]-N-[1(R)-methyl-(4-methylsulfinyl)butyl]benzenesulfonamide]: the IC50 was ≤ 25 nM.

`CC[S+]([O-])CCC[C@@H](C)N(c1cc(Cl)ccc1Cl)S(=O)(=O)c1ccc(Cl)cc1` (stereo partly drawn) [Example 1172, 4-chloro-N-[2,5-dichlorophenyl]-N-[1(R)-methyl-(4-ethylsulfinyl)butyl]benzenesulfonamide]: the IC50 was ≤ 25 nM.

`CC[S+]([O-])CCCC[C@@H](C)N(c1cc(Cl)ccc1Cl)S(=O)(=O)c1ccc(Cl)cc1` (stereo partly drawn) [Example 1173, 4-chloro-N-[2,5-dichlorophenyl]-N-[1(R)-methyl-(5-ethylsulfinyl)pentyl]benzenesulfonamide]: the IC50 is ≤ 25 nM.

For `CC[S+]([O-])CCC[C@@H](C)N(c1cc(F)ccc1F)S(=O)(=O)c1ccc(Cl)cc1` (stereo partly drawn) [Example 1174, 4-chloro-N-[2,5-difluorophenyl]-N-[1(R)-methyl-(4-ethylsulfinyl)butyl]benzenesulfonamide], the IC50 is ≤ 25 nM.

On to `C[C@H](CCC[S+](C)[O-])N(c1cc(F)ccc1F)S(=O)(=O)c1ccc(Cl)cc1` (stereo partly drawn) [Example 1175, 4-chloro-N-[2,5-difluorophenyl]-N-[1(R)-methyl-(4-methylsulfinyl)butyl]benzenesulfonamide], for which the IC50 was ≤ 25 nM.

With `CSCCC[C@@H](C)N(c1cc(Cl)ccc1Cl)S(=O)(=O)c1ccc(Cl)cc1` [Example 1176, 4-chloro-N-[2,5-dichlorophenyl]-N-[1(R)-methyl-(4-methylthio)butyl]benzenesulfonamide], the IC50 was ≤ 25 nM.

For the compound `CCSCCC[C@@H](C)N(c1cc(F)ccc1F)S(=O)(=O)c1ccc(Cl)cc1` [Example 1177, 4-chloro-N-[2,5-difluorophenyl]-N-[1(R)-methyl-(4-ethylthio)butyl]benzenesulfonamide], the IC50 was ≤ 25 nM.

Turning to `CSCCC[C@@H](C)N(c1cc(Cl)ccc1F)S(=O)(=O)c1ccc(Cl)cc1` [Example 1178, 4-chloro-N-[5-chloro-2-fluorophenyl]-N-[1(R)-methyl-(4-methylthio)butyl]benzenesulfonamide], the IC50 was ≤ 25 nM.

On to `CC(C)[S+]([O-])CCC[C@@H](C)N(c1cc(F)ccc1F)S(=O)(=O)c1ccc(Cl)cc1` (stereo partly drawn) [Example 1179], for which the IC50 is ≤ 25 nM.

For `CCS(=O)(=O)CC[C@@H](C)N(c1cc(Cl)ccc1Cl)S(=O)(=O)c1ccc(Cl)cc1` [Example 1180, 4-chloro-N-[2,5-dichlorophenyl]-N-[1(R)-methyl-(3-ethylsulfonyl)propyl]benzenesulfonamide], the IC50 was ≤ 25 nM.

Take `C[C@H](CCSCC(=O)O)N(c1cc(Cl)ccc1Cl)S(=O)(=O)c1ccc(Cl)cc1` [Example 1181, (6R)-6-[(2,5-dichlorophenyl)-[(4-chlorophenyl)sulfonyl]-amino]-3-thioheptanoic acid]: the IC50 is ≤ 25 nM.

For `CC(C)C[S+]([O-])CCC[C@@H](C)N(c1cc(Cl)ccc1Cl)S(=O)(=O)c1ccc(Cl)cc1` (stereo partly drawn) [Example 1182], the IC50 is ≤ 25 nM.

With `CCSCCC[C@@H](C)N(c1cc(Cl)ccc1Cl)S(=O)(=O)c1ccc(Cl)cc1` [Example 1183, 4-chloro-N-[2,5-dichlorophenyl]-N-[1(R)-methyl-(4-ethylthio)butyl]benzenesulfonamide], the IC50 was ≤ 25 nM.

`CC(C)CS(=O)(=O)CCC[C@@H](C)N(c1cc(Cl)ccc1Cl)S(=O)(=O)c1ccc(Cl)cc1` [Example 1184]: the IC50 lay within 25 to 50 nM.

For the compound `CC[C@H](CSCC(=O)O)N(c1cc(Cl)ccc1Cl)S(=O)(=O)c1ccc(Cl)cc1` [Example 1186, (5R)-5-[(2,5-dichlorophenyl)-[(4-chlorophenyl)sulfonyl]-amino]-3-thioheptanoic acid], the IC50 lay in the range of 25 to 50 nM.

Regarding `COC(=O)C[S+]([O-])CC[C@@H](C)N(c1cc(Cl)ccc1Cl)S(=O)(=O)c1ccc(Cl)cc1` (stereo partly drawn) [Example 1187, methyl(6R)-6-[(2,5-dichlorophenyl)-[(4-chlorophenyl)sulfonyl]-amino]-3-thioheptanoic acid, 3-oxide], the IC50 fell in the range of 50 to 100 nM.

As to `CC(C)CSCCC[C@@H](C)N(c1cc(Cl)ccc1Cl)S(=O)(=O)c1ccc(Cl)cc1` [Example 1188], the IC50 was in the range of 100 to 500 nM.

Take `CCSCC[C@@H](C)N(c1cc(Cl)ccc1Cl)S(=O)(=O)c1ccc(Cl)cc1` [Example 1189, 4-chloro-N-[2,5-dichlorophenyl]-N-[1(R)-methyl-(3-ethylthio)propyl]benzenesulfonamide]: the IC50 lay in the range of 100 to 500 nM.

Take `CC(C)SCCC[C@@H](C)N(c1cc(Cl)ccc1Cl)S(=O)(=O)c1ccc(Cl)cc1` [Example 1190]: the IC50 fell in the range of 100 to 500 nM.

On to `COC(=O)CS(=O)(=O)CC[C@@H](C)N(c1cc(Cl)ccc1Cl)S(=O)(=O)c1ccc(Cl)cc1` [Example 1191, methyl(6R)-6-[(2,5-dichlorophenyl)-[(4-chlorophenyl)sulfonyl]-amino]-3-thioheptanoic acid, 3,3-dioxide], for which the IC50 lay in the range of 100 to 500 nM.

On to `COC(=O)C[S+]([O-])CC[C@@H](C)N(c1cc(Cl)ccc1Cl)S(=O)(=O)c1ccc(Cl)cc1` (stereo partly drawn) [Example 1193, methyl(6R)-6-[(2,5-dichlorophenyl)-[(4-chlorophenyl)sulfonyl]-amino]-3-thioheptanoic acid, 3-oxide], for which the IC50 lay within 100 to 500 nM.

Consider `C[C@H](CC[S+]([O-])CC(=O)O)N(c1cc(Cl)ccc1Cl)S(=O)(=O)c1ccc(Cl)cc1` (stereo partly drawn) [Example 1196, (6R)-6-[(2,5-dichlorophenyl)-[(4-chlorophenyl)sulfonyl]-amino]-3-thioheptanoic acid, 3-oxide], for which the IC50 is > 500 nM.

`C[C@H](CCS(=O)(=O)CC(=O)O)N(c1cc(Cl)ccc1Cl)S(=O)(=O)c1ccc(Cl)cc1` [Example 1197, (6R)-6-[(2,5-dichlorophenyl)-[(4-chlorophenyl)sulfonyl]-amino]-3-thioheptanoic acid, 3,3-dioxide]: the IC50 is > 500 nM.

Values taken from patent publication US6967196B1, “Sulfonamide compounds and uses thereof” (Bristol-Myers Squibb Company, priority 1999, dated 2005).
